The text below walks through data of ChEMBL document CHEMBL1125732, “Synthesis and benzodiazepine binding activity of a series of novel [1,2,4]triazolo[1,5-c]quinazolin-5(6H)-ones” (J Med Chem, 1991).

In assay [1] the test system is Rattus norvegicus. In words: Antagonism of Diazepam anti-convulsive effects in rats treated with metrazole ip dose at 0.3mg/kg, 6/6 rats affected. It is filed as functional.
The species entered for assay [2] is Rattus norvegicus. In words: Antagonism of diazepam-induced rotarod deficit after peroral dose in rats. It is filed as functional. To be noted: po. For orientation: The rotarod test checks motor coordination on a turning rod.
Assay [3] concerns Rattus norvegicus. In words: Antagonism of Diazepam anti-convulsive effects in rats treated with metrazole ip dose at 10 mg/kg, 0/6 rats affected. The format is functional. The settings on record: route intraperitoneal.
Assay [4] concerns Rattus norvegicus. As to the kind of experiment: Antagonism of Diazepam anti-convulsive effects in rats treated with metrazole ip dose at 1 mg/kg, 3/6 rats affected. The format is functional. To be noted: route intraperitoneal.
Assay [5] has as its target GABA-A receptor; anion channel. As to the kind of experiment: Binding affinity at Benzodiazepine receptor of rat forebrain by [3H]- flunitrazepam displacement.
Assay [6] addresses T1, GABA-A receptor; anion channel (Mus musculus) (UniProt Q8BHJ7+P26048+Q8QZW7+P50571+Q9R0Y8+P22723+A2AMW3+P62812+Q9JLF1+P26049+P22933+Q9D6F4+P63080+P27681+P16305). In words: In vivo percentage inhibition of flunitrazepam binding to Benzodiazepine receptor in mouse fore brain at 30 mg/Kg. It is filed as organism-based.
The test system of assay [7] is Rattus norvegicus. As to the kind of experiment: Antagonism of Diazepam anti-convulsive effects in rats treated with metrazole ip dose at 3mg/kg, 2/6 rats affected. It is filed as functional.
In assay [8] the test system is Rattus norvegicus. As to the kind of experiment: Antagonism of diazepam-induced rotarod deficit on ip dose in rats. It is filed as functional.
Assay [9] deals with Rattus norvegicus. In words: Antagonism of Diazepam anti-convulsive effects in rats treated with metrazole ip dose at 30 mg/kg, 0/6 rats affected. To be noted: route intraperitoneal. The format is functional.
The target of assay [10] is GABA-A receptor; anion channel. As to the kind of experiment: Displacement of [3H]diazepam from GABA-A Benzodiazepine receptor of rat forebrain. (In general: In a radioligand displacement assay an active substance lowers the binding of a labelled ligand.)
The species named for assay [11] is Rattus norvegicus. As to the kind of experiment: Antagonism of diazepam-induced discriminative stimuli in rats by peroral dose. The format is functional. To be noted: po.
Assay [12] has as its system Rattus norvegicus. As to the kind of experiment: Antagonism of diazepam-induced discriminative stimuli in rats by ip dose. It is filed as functional.
For assay [13], the system named is Rattus norvegicus. As to the kind of experiment: Antagonism of Diazepam anti-convulsive effects in rats treated with metrazole ip dose at 1 mg/kg, 2/6 rats affected. The format is functional. To be noted: route intraperitoneal.
In assay [14] the target is GABA-A receptor; anion channel. In words: Displacement of [3H]- Diazepam from GABA-A Benzodiazepine receptor of rat forebrain.
Assay [15] has as its system Rattus norvegicus. As to the kind of experiment: Antagonism of Diazepam anti-convulsive effects in rats treated with metrazole ip dose at 3mg/kg, 1/6 rats affected. The format is functional.
Assay [16] deals with Rattus norvegicus. In words: Antagonism of Diazepam anti-convulsive effects in rats treated with metrazole ip dose at 1 mg/kg, 5/6 rats affected. It is filed as functional. The settings on record: route intraperitoneal.
For assay [17], the target named is T1, GABA-A receptor; anion channel (Mus musculus). The settings on record: 30 mg/kg.
Description: In vivo percentage inhibition of flunitrazepam binding to mouse fore brain at 30 mg/kg
The target in assay [18] is GABA-A receptor; anion channel. In words: Displacement of [3H]flunitrazepam from GABA-A Benzodiazepine receptor of rat forebrain.
Assay [19] has as its system Rattus norvegicus. In words: Antagonism of Diazepam anti-convulsive effects in rats treated with metrazole ip dose at 20 mg/kg, 0/6 rats affected. The settings on record: route intraperitoneal. It is filed as functional.
The species entered for assay [20] is Rattus norvegicus. As to the kind of experiment: Antagonism of diazepam-induced rotarod deficit on peroral dose in rats. The format is functional. The settings on record: po.
For assay [21], the system named is Rattus norvegicus. As to the kind of experiment: Antagonism of Diazepam anti-convulsive effects in rats treated with metrazole ip dose at 1 mg/kg in rats, 1/6 rats affected. The format is functional. The settings on record: route intraperitoneal.
Assay [22] concerns Rattus norvegicus. In words: Antagonism of Diazepam anti-convulsive effects in rats treated with metrazole ip dose at 0.3 mg/kg, 5/6 rats affected. It is filed as functional. To be noted: route intraperitoneal.

pIC50: −log10 of the molar value. A value given as a limit tells only on which side of the number the result lay.

In general, ED50 refers to the midpoint of the dose-response relation. The low end stands for greater potency, the high end for weaker potency. The pIC50 is −log10 of the IC50, conventionally taken in molar units. A high value points to a low IC50. What is called inhibition is the change of the read-out against control, counted positive when it falls. Higher therefore signals a response far below the control. On to `Oc1nc2ccc(Cl)cc2c2nc(-c3ccccc3)nn12`, for which the Antagonist effect in the assay on Rattus norvegicus [1] was found to be 6; with Rattus norvegicus [3] it was 0; in the assay on Rattus norvegicus [4], 3; in the assay on Rattus norvegicus [7], 2; with Rattus norvegicus [9], 0. The median effective dose (ED50) in the assay filed under Rattus norvegicus [2] was determined as 2.8 mg/kg; in the assay with Rattus norvegicus [8], 26 mg/kg. The pIC50 in assay [5] was 8.10. In [6], this compound displayed an inhibition of 72%.
`CN1C(=O)CN=C(c2ccccc2F)c2cc([N+](=O)[O-])ccc21` [FLUNITRAZEPAM] gave a pIC50 in [10] of 8.82.
`Oc1nc2ccccc2c2nc(-c3ccncc3)nn12` displayed an inhibition in assay [6] of 19%.
Take `CN1CCCC(c2nc3c4cc(Cl)ccc4nc(O)n3n2)C1` (centres undefined): the negative logarithm of the IC50 (pIC50) in assay [5] was less than 6.00.
As for `Oc1nc2ccc(Cl)cc2c2nc(-c3ccccc3F)nn12`, the Antagonist effect amounted to 6 in the assay on Rattus norvegicus [1]; 0 with Rattus norvegicus [3]; 2 in the assay with Rattus norvegicus [13]; 2 in the assay with Rattus norvegicus [7]; 0 in the assay on Rattus norvegicus [9]. In addition, the median effective dose (ED50) in the assay listed under Rattus norvegicus [2] worked out at 5.5 mg/kg; in the assay listed under Rattus norvegicus [11], 6.51 mg/kg; in the assay with Rattus norvegicus [12], 2.99 mg/kg; in the assay with Rattus norvegicus [8] it was 6.92 mg/kg. In [5], this compound showed a negative logarithm of the IC50 (pIC50) of 9.40. In assay [6], this compound yielded an inhibition of 76%.
Consider `Cc1ccc(-c2nc3c4cc(Cl)ccc4nc(O)n3n2)cc1`, for which, in assay [5], the pIC50 is 6.70. In assay [6], this compound returned an inhibition of 63%.
As to `Oc1nc2ccccc2c2nc(C(F)(F)F)nn12`, the pIC50 in assay [14] is less than 6.00.
In assay [5], `Oc1ccc(-c2nc3c4cc(Cl)ccc4nc(O)n3n2)cc1` had a pIC50 of 9.52. In addition, the inhibition in assay [6] stood at 0%.
For `Oc1nc2ccc(Cl)cc2c2nc(Cc3ccccc3)nn12` the same measures were 7.00 and 0%.
In the case of `Cn1c(=O)n2nc(-c3cccnc3)nc2c2ccccc21`, in [14], the pIC50 is less than 5.00.
For the compound `Oc1nc2ccccc2c2nc(-c3ccccc3F)nn12`, the pIC50 in [5] is 9.40. Moreover, the inhibition in [6] was 41%.
`Cn1c(=O)n2nc(-c3ccccc3)nc2c2ccccc21`: in [14], the pIC50 is 6.46. The compound also gave an inhibition in assay [6] of 55%.
On the same counts, the results for `Oc1nc2c(Cl)cc(Cl)cc2c2nc(-c3ccccc3)nn12` are 6.70 and 6%.
On to `O=c1[nH]c2ccccc2c2nc(-c3ccncc3)nn12`, for which the pIC50 in assay [14] is 6.70.
The same measure, in the same setting: as for `Oc1nc2ccc(Cl)cc2c2nc(-c3ccccn3)nn12`, the figure is 7.00.
In turn, `COc1ccc(-c2nc3c4cc(Cl)ccc4nc(O)n3n2)cc1` gave a pIC50 in assay [5] of 8.52.
Take `O=C1C2C=Nc3ccccc3C2=NN1c1ccccc1` (centres undefined) [CGS-8216]: the Antagonist effect with Rattus norvegicus [15] was 1; with Rattus norvegicus [16] it was 5; in the assay with Rattus norvegicus [19], 0; with Rattus norvegicus [3], 0. For the same compound, the pIC50 in assay [10] is 9.52; in assay [18] it was 8.36. Further, the inhibition in [17] is 90%. Besides, the ED50 in the assay listed under Rattus norvegicus [11] amounted to 1.61 mg/kg; in the assay filed under Rattus norvegicus [20], 0.6 mg/kg.
The compound `Oc1nc2ccc(Cl)cc2c2nc(-c3ccc(C(F)(F)F)cc3)nn12` had a pIC50 in assay [5] of less than 6.00.
In assay [14], `Oc1nc2ccccc2c2nc(-c3cccnc3)nn12` gave a pIC50 of 6.89. In assay [6], this compound came in with an inhibition of 48%.
With `Oc1nc2ccc(Cl)cc2c2nc(-c3cccc(F)c3)nn12`, the Antagonist effect with Rattus norvegicus [3] was 0; in the assay with Rattus norvegicus [21], 1; in the assay on Rattus norvegicus [22], 5; in the assay on Rattus norvegicus [7], 2; in the assay on Rattus norvegicus [9], 0. The pIC50 in assay [5] was 8.40. The compound further registered an inhibition in assay [6] of 31%. The ED50 in the assay on Rattus norvegicus [8] is greater than 30 mg/kg.
In turn, `Oc1nc2ccc(Cl)cc2c2nc(-c3ccco3)nn12` gave a pIC50 in assay [5] of 9.22. The same compound yielded an inhibition in assay [6] of 15%.
For the compound `Oc1nc2ccc(Cl)cc2c2nc(-c3cccs3)nn12`, the pIC50 in assay [5] is 9.22. In assay [6], this compound registered an inhibition of 21%.
On the same counts, the results for `OCc1nc2c3ccccc3nc(O)n2n1` are less than 7.00 and 0%.
With `Oc1nc2ccccc2c2nc(-c3ccccc3)nn12`, the pIC50 in assay [14] was 8.40. The compound further returned an inhibition in assay [6] of 55%.
As to `Oc1nc2ccc(Cl)cc2c2nc(-c3cccnc3)nn12`, the negative logarithm of the IC50 (pIC50) in assay [14] is 8.00. In assay [6], the inhibition was determined as 24%.
In assay [5], `COc1cc(-c2nc3c4cc(Cl)ccc4nc(O)n3n2)cc(OC)c1OC` had a pIC50 of less than 6.00.
The compound `Oc1nc2ccccc2c2nc(-c3ccc(Cl)cc3)nn12` had a pIC50 in assay [14] of less than 5.00.
In turn, `Oc1nc2ccc(Cl)cc2c2nc(-c3ccoc3)nn12` gave a pIC50 in assay [5] of 8.46.
With `Cn1c(=O)n2nc(C(F)(F)F)nc2c2ccccc21`, the pIC50 in assay [14] is less than 6.00.
Turning to `CCOc1nc2c3ccccc3nc(O)n2n1`, the pIC50 in assay [5] was 8.60. In [6], this compound gave an inhibition of 0%.
`Oc1nc2ccc(Cl)cc2c2nc(-c3ccc(F)cc3)nn12` gave a pIC50 in [5] of 7.70. The same compound returned an inhibition in assay [6] of 52%.
`Oc1nc2ccc(Cl)cc2c2nc(C3CCCO3)nn12` (centres undefined): the negative-log IC50 (pIC50) in [5] is less than 7.00.
